Measurements reported in US20240307339A1, “NOVEL COMPOUNDS FOR THE TREATMENT AND PREVENTION OF NEUROLOGICAL COMPLICATIONS OF VIRAL INFECTIONS” (Sunregen Healthcare AG, priority 2021, published 2024).

Columns and labels:
[1] = system: Mouse hepatitis virus (MHV); assay: mouse model of coronavirus infection (MHV infected mice); assay type: in vivo, C57BL/6J male mice; details: vs vehicle; for clinical score / clinical severity of virus induced neuropathology: 50 mg/kg, treatment started 3 days after virus infection till Day 21, P<0.05 on days 9, 10 or 14
Method: Tripentadecanoin was tested in a mouse model of coronavirus infection. The objective of this study was to investigate tripentadecanoin's therapeutic effects in MHV infected mice. Mouse hepatitis virus (MHV) causes acute infections of the murine liver and lungs and persistent infections of the gastrointestinal tract and central nervous system (CNS). […] This virus was named JHM virus (JHMV) and subsequently shown to be a coronavirus, related to other MHV strains (Bergmann, C., Lane, T. & Stohlman, S. Coronavirus infection of the central nervous system: host-virus stand-off. Nat Rev Microbiol 2006; 4:121-132.). JMHV is now broadly used to study virus-induced neurological diseases, particularly demyelination. It is considered to be a suitable model for coronavirus-induced neurological complication. CNS infection with MHV provides an animal model for acute viral-induced encephalomyelitis and the human demyelinating disease, multiple sclerosis. MHV-induced demyelinating disease is typified by mice, which control viral replication, but fail to fully clear virus. Acute infection induces CNS inflammation and initiates the demyelinating process. Animals that fail to control virus replication in a sufficiently rapid manner succumb to encephalomyelitis within 5-10 days. Survivors of acute infection typically eliminate infectious virus within two weeks. However, these animals still fail to achieve sterile immunity as evidenced by the persisting viral antigen (Ag) and RNA within the CNS. MHV persistence is associated with chronic CNS inflammation and ongoing primary demyelination.
20 C57BL/6J male mice of at 5 weeks of age were randomized into 2 groups of vehicle control or tripentadecanoin 50 mg/kg. Tripentadecanoin or vehicle control treatment was started 3 days after virus infection for a total of 19 days till Day 21. Clinical score of MHV infected mice was rated as: 0—asymptomatic; 1—limp tail; 2—wobbly gait with righting difficulty; 3—hind limb weakness and extreme righting difficulty; 4—hind limb paralysis; 5—moribund.

[2] = system: NMU-induced photoreceptor degeneration (retina); assay: murine model of N-nitroso-N-methylurea (NMU) photoreceptor degeneration; assay type: in vivo, C57BL/6J mice; details: for outer nuclear layer (ONL) area under the curve (AUC -1.75 to +1.75 μm): H&E histology; for number of rows of photoreceptor nuclei: mid-peripheral region
Method: Eighteen 8-12-week-old female C57BL/6J mice were randomized into three groups: 1) NMU+vehicle; 2) NMU+Tripentadecanoin 20 mg/kg; 3) NMU+Tripentadecanoin 50 mg/kg. NMU at a dose of 50 mg/kg was injected i.p. to all mice; Tripentadecanoin (or vehicle) was administered daily via oral gavage starting 3 days before NMU and continuing until 7 days after NMU challenge. Retina were imaged by spectral domain optical coherence tomography (OCT) 5 days before exposing to NMU and 7 days after NMU. All eyes were collected and processed for histological hematoxylin and eosin (H&E) staining. The thicknesses of photoreceptors were measured from different locations on OCT images and H&E slides, respectively. Photoreceptor thickness on H&E slides were quantified using automated Leica software (Leica, Heerbrugg), operated by a single masked observer. Results were expressed as the outer nuclear layer (ONL) area under the curve (AUC −1.75 to +1.75 μm) and number of rows of photoreceptor nuclei.

[3] = system: Hsp104-GFP age-induced protein deposit; assay: Hsp104-GFP age-induced protein deposit in old yeast cells (replicative ageing); assay type: cell-based, Saccharomyces cerevisiae; details: for proportion of cells with an Hsp104-GFP focus / proportion of cells with an Hsp104-GFP focus decreased: 30 μM
Text: While yeast populations can be propagated ad libitum, the yeast mother cell has a finite lifespan and can only produce a certain amount of daughter cells, typically 25 for laboratory backgrounds. Mortality rate increases with the number of daughter cells produced, therefore this phenomenon is termed replicative ageing. In old yeast cells, age-induced protein deposits recruit a specific set of chaperones and co-chaperones.
Hsp104 expressed endogenously as a fusion to the green fluorescent protein tag (Hsp104-GFP) forms a focus in old cells. The presence (percentage of cells with an aggregate at a certain age), number (number of foci per cell) and size (fluorescent brightness) can be assessed on hundreds of cells and thus, this gives a good model for assessing the biology of age induced aggregates.
To test if tripentadecanoin is active in yeast, cells were treated with different concentrations of the purified compound (1 μM, 10 μM and 30 μM) as well as an extract (10 μg/ml) of the plant it is derived from (Ophioglossum thermale). These cells were let to age in the presence of the compound and after 10-11 generations, cells were imaged to count their age and assess whether they contained a Hsp104-GFP age-induced protein deposit or not (FIG. 3A).
(§1) Potential targets of the compound of formula (I) were identified by using RNAseq. The yeast cells (Saccharomyces cerevisiae) were treated with tripentadecanoin (30 μM) for 5 hours and the mRNA abundance of all genes in cells that were treated with the compound or vehicle only for 5 hours was quantitatively monitored. Samples in triplicate were processed by the company Genewiz. […] Among these hits is Yhb1, a flavohemoglobin that plays a role in nitrosative stress response (FIG. 4A). Following the results from the RNAseq survey, PH084, YHB1 or VTC4 were knocked out and the proportion of old cells with an Hsp104-GFP focus was measured, as before. While pho84Δ cells were similar to wild type cells, much more vtc4Δ and yhb1Δ mutant cells contained an age-induced deposit (FIG. 4A).

[4] = system: YHB1 (yeast homologue of neuroglobin) mRNA; assay: RNAseq of yeast cells treated with tripentadecanoin; assay type: cell-based, Saccharomyces cerevisiae
Method: as §1

[5] = system: neuroglobin mRNA; assay: Expression of neuroglobin in mouse primary cortical neurons (qPCR); assay type: cell-based, C57BL/6J mouse
Method: Healthy neurons preparation: primary mouse cortical neurons from embryonic day 16-17 were prepared from C57BL/6J mouse foetuses, resulting in 95-97% of neurons and 3-5% astrocytes. At DIV 5/6, mouse primary cortical neurons was treated for 3 h (T3) or 24 h (T24) with vehicle (ethanol) or increasing concentrations of tripentadecanoin (100 or 1000 nM). q PCRmethods used to amplify the mRNA of neuroglobin.
The amount and quality of RNA were evaluated using capillary electrophoresis. The complementary DNA (cDNA) was synthesized by reverse transcription of total RNA in presence of oligo(dT) and “Transcriptor reverse transcriptase” from Roche. The cDNA quantities were then adjusted before the PCRstep. The qPCRreactions were performed using the Licht Cycler system from Roche according to supplier instructions. In this experiment, Rps28 (Ribosomal protein S28) was used as a reference marker (also referred to as housekeeping gene).
The reaction mix (10 μL final) was prepared as follows: • 2.5 μL cDNA • Primers and TaqMan probe • Reagent mix containing taq DNA polymerase and MgCl2.
The following primers were used in this experiment: […]

Structure (SMILES): CCCCCCCCCCCCCCC(=O)OCC(COC(=O)CCCCCCCCCCCCCC)OC(=O)CCCCCCCCCCCCCC [tripentadecanoin]
- clinical score / clinical severity of virus induced neuropathology [1]: reducing the clinical severity of virus induced neuropathology
- clinical score / clinical severity of virus induced neuropathology ([1]; listed as compound of the formula (I)): improved clinical score
- weight loss of animals ([1]; mouse model of coronavirus infection): reduced weight loss of animals
- outer nuclear layer (ONL) area under the curve (AUC -1.75 to +1.75 μm) ([2]; 20 mg/kg daily oral gavage, p<0.01 vs vehicle): 73.58±14.45
- number of rows of photoreceptor nuclei ([2]; 20 mg/kg, p<0.01 vs vehicle): 6.4±1.2
- outer nuclear layer (ONL) area under the curve (AUC -1.75 to +1.75 μm) ([2]; 50 mg/kg daily oral gavage, p<0.001 vs vehicle): 83.08±19.05
- number of rows of photoreceptor nuclei ([2]; 50 mg/kg, p<0.001 vs vehicle): 7.0±1.7
- neuroretinal thickness (OCT) ([2]; 50 mg/kg, peripheral (p<0.05), mid-peripheral (p<0.05) and central retina (p<0.01) vs vehicle): significantly increased
- thickness of photoreceptor layers (in vivo OCT images) ([2]; OCT 7 days after NMU, vs control): increased thickness of photoreceptor layers
- cells containing a Hsp104-GFP age-induced protein deposit (focus) ([3]; 1 μM, 10 μM and 30 μM, after 10-11 generations, vs vehicle 0.3% ethanol): less likely to harbor a Hsp104-GFP focus
- proportion of cells with an Hsp104-GFP focus ([3]; pho84Δ cells): decreased
- proportion of cells with an Hsp104-GFP focus decreased ([3]; vtc4Δ mutant cells): this was not the case
- proportion of cells with an Hsp104-GFP focus ([3]; wild type cells): decreased
- aggregation of HSP-104 (GFP-HSP104 loci) ([3]; yeast cells, summary statement): greatly reduced
- proportion of cells with an Hsp104-GFP focus decreased ([3]; yhb1Δ mutant cells): this was not the case
- mRNAs significantly differentially expressed vs vehicle ([4]; 30 μM, 5 hours, RNAseq, triplicate): 157
- expression of YHB1 ([4]; yeast cells treated with tripentadecanoin): significantly increased
- expression of neuroglobin vs vehicle control ([5]; 1000 nM, 3 hours, p<0.001): significant increased expression of neuroglobin
- increase in the expression level of neuroglobin ([5]; mouse neurons, Example 4): approximately six-fold
